Data set [1] has as its target T1, CB1 (Rattus norvegicus, UniProt P20272). Briefly: Rat CB1 receptor binding using brain membrane, [3H]SR141716A displacement (Protocol I). Set-up: CB1 receptor present in a rat brain membrane preparation; from tissue; host or cells: rat brain membrane; inhibition: dose or concentration left out as unconfirmed. The conditions noted are these: 1 h.
A further data set deals with hCB2 (Homo sapiens, UniProt P34972). Briefly: In vitro binding assay using hCB2-CHO membranes, [3H]-CP-55,940 displacement (Protocol IV). Set-up: expressed in transfected cells; host or cells: CHO (hCB2-CHO, generated in-house). Conditions: 1 h, read-out: % Displacement Protocol IV. The gist of the method: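 Compounds were tested at a single 300 nM final concentration for displacing 0.75 nM [3H]-CP-55,940 from hCB2-CHO membranes (1 h, 30 °C, 50 mM Tris pH 7.4, 5 mM MgCl2, 1 mM EDTA, 0.1% BSA). Filter-bound radioactivity was counted, with 0.5 μM unlabelled CP-55,940 for nonspecific binding; results are % displacement.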

Data set [2] concerns the target T1, CB1. Briefly: GTPγS binding assay, CB1 functional assay in rat cerebellar membrane (Protocol VIII). In kind it is biochemical. On the set-up: 10 μg rat cerebellum membrane; from tissue; host or cells: rat cerebellum membrane, prepared in-house. The procedure:
VIII. Protocol for GTPγS Binding Assay (CB1 Functional Assay in Rat Cerebellar Membrane)
In this GTPγS binding assay, total, basal and nonspecific binding were determined. See Griffin G., Atkinson P. J., Showalter V. M., Martin B. R. and Abood M. E., “Evaluation of cannabinoid receptor agonists and antagonists using the Guanosine-5′-O-(3-(^35S)thio)-triphosphate binding assay in rat cerebellar membranes,” J Pharmacol Exp Ther 285: 553-560, 1998. Three wells for total binding, three wells for basal binding, and three wells for nonspecific binding at 0.2 nM concentration of radioligand were used. Basal binding was defined by 50 μM GDP (Guanosine diphosphate) and non-specific binding was defined by 10 μM unlabeled GTPγS. 10 μg rat cerebellum membrane, 50 μM of GDP, WIN-55212-2 or test compound (1 μM or 300 nM), 10 μM unlabeled GTPγs, and 0.2 nM of [^35S]GTPγS were added into a 96 well plate and the final volume of the reaction mixture was made with GTPγS buffer (50 mM Tris, 3 mM anhydrous MgCl2, 0.2 mM EGTA and 100 mM NaCl pH 7.4) to 200 μl. The plates were incubated at 30° C. for 1 hour. Then the reaction was stopped by filtration using a Whatman GF/B-96 microfilter plate. Three washings were given using Tris-HCl. The radioactivity bound to the brain membrane was retained on the filter disks to which scintillation fluid was added (Microscint PS). Then plates were read for radioactive counts using a Beta Liquid Scintillation Counter (Packard Instruments, Ill., USA).
The rat cerebellar brain membrane was prepared as follow: • 1. Sacrifice the rat and take out the whole brain and separate cerebellum as fast as possible and keep it on ice. • 2. Take the weight of the cerebellum and homogenize in 30 ml of homogenizing buffer (50 mM Tris-HCL containing 1 mM EDTA and 5% sucrose, pH 7.5) using homogenizer in cold condition. • 3. Centrifuge the homogenized cerebellum at 18000 rpm (38000 g) for 15 min at 4° C. • 4. Resuspend the pellet in 5 ml 50 mM Tris-HCL containing 1 mM EDTA and keep it on ice for 30 min. • 5. Pass the membrane through insulin syringe to ensure uniform suspension. • 6. Centrifuge the membrane at 18000 rpm at 4° C. for 20 min. • 7. Reconstitute the pellet in 3 ml of GTPγS buffer and estimate the protein by BCA assay and store the membrane in aliquots of 1000 μg of protein. CB1 Agonist and Antagonist Activity Screening Assay
The test compounds were screened at a final concentration of 1 μM or 300 nM in the absence and presence of 1 μM of WIN 55, 212-2 in the same manner as described in the GTPγS binding assay.
An agonist will stimulate the GTPγS binding over the basal.
An inverse agonist will decrease the basal GTPγS binding and/or produce more than 100% inhibition of the agonist (WIN-55212-2) induced stimulation.
The percent stimulation of GTPγS binding by each test compound at 1 μM or 300 nM concentration in the absence and presence of 1 μM WIN 55, 212-2 was calculated by comparing it with basal specific bound (Basal binding—Non Specific binding) values.

The next data set addresses hCB1 (Homo sapiens, UniProt P21554). As to the kind of experiment: In vitro binding assay using hCB1-CHO membranes, [3H]-CP-55,940 displacement (Protocol II). On the set-up: expressed in transfected cells; host or cells: CHO (hCB1-CHO, generated in-house). The procedure: II. Protocol for In Vitro Assay Using hCB1-CHO Membranes
The reaction was set up in a total volume of 200 μl in PEI (Poly(ethyleneimine)) (0.2%) precoated Millipore GFB (Glass Fibre-B) filter plates. 1 mM stocks of test compounds were prepared in DMSO and tested at a final concentration of 300 nM. The non-specific binding was determined by 0.5 μM CP-55, 940. […] The assay mixture (with or without the test compound) was incubated at 37° C. for 1 hour. The reaction was stopped by rapid filtration under vacuum and the radioactivity on the filters was measured by liquid scintillation counting.

[3] abbreviates: rat brain membrane, [3H]SR141716A displacement, read-out: % Displacement Protocol I.
Setting [4] is: hCB2-CHO membranes, [3H]-CP-55,940 displacement.
Where [5] appears, read: 1 h, GTPγS binding over basal, rat cerebellar membrane, tested at 1 uM, read-out: Per Se % Stimulation.
[6] abbreviates: GTPγS binding, tested at 1 uM in presence of 1 μM WIN 55,212-2, read-out: % Inhibition of WIN-55212-2 induced stimulation.

Like-named read-outs stand apart in the source and are kept apart here.

T1 sequence (P20272 whole entry): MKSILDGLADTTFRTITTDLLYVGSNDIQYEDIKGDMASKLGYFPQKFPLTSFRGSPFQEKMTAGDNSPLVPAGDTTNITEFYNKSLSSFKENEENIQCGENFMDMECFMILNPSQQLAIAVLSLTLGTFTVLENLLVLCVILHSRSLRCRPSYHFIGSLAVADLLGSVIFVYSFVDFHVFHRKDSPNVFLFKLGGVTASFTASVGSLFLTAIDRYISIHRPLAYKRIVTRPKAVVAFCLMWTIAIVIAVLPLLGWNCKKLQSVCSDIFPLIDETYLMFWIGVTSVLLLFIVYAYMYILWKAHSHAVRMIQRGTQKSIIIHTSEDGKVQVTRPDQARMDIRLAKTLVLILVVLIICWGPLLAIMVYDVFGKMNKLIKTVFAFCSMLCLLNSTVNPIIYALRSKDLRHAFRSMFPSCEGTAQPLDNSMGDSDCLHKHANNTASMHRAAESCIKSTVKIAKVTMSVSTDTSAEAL
Chain of hCB2 (P34972 whole entry): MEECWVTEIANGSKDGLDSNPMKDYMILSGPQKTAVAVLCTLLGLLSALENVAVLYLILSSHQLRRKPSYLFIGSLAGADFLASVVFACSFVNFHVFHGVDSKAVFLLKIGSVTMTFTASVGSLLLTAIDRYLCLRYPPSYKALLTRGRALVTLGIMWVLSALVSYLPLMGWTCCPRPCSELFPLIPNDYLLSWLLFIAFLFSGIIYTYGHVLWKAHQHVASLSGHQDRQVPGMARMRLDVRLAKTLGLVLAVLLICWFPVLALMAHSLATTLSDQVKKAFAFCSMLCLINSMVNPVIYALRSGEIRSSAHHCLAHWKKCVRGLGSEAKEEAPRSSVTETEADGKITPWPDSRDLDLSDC
Chain of hCB1 (P21554 whole entry): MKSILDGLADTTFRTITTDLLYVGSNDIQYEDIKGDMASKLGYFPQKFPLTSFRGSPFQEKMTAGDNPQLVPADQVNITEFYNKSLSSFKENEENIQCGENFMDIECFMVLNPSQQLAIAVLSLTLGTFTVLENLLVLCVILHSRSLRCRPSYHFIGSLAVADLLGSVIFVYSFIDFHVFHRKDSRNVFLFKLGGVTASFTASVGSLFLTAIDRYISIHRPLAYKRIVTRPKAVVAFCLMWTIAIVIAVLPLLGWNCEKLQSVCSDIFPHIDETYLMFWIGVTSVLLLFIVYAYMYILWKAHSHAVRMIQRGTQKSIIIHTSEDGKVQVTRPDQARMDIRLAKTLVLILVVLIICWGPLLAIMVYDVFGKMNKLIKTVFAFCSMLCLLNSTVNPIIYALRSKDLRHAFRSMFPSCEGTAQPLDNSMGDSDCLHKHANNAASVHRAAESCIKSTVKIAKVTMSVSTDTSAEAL

As for `O=C(NCc1ccc(F)cc1)c1nn(-c2ccc(Cl)cc2Cl)c2c1C1CCC2C1` (stereo not shown) [Example 246, N(3)-(4-Fluorobenzyl)-1-(2,4-dichlorophenyl)-4,5,6,7-tetrahydro-1H-4,7-methano-indazole-3-carboxamide], the melting point was in the range of 106 to 108 °C. On CB1 [1] (setting [3]), the inhibition amounted to 46%. The inhibition at 0.3 µM at hCB2 (setting [4]) is 30.4%. The activation at 1 µM on CB1 [2] (setting [5]) came out at 0.7%. Also, the inhibition at 1 µM on CB1 [2] (setting [6]) worked out at 98.9%.

In the case of `O=C(Nc1cccc(Cl)c1)c1nn(-c2ccc(Cl)cc2)c2c1C1CCC2C1` (stereo not shown) [Example 215, N(3)-(3-Chorophenyl)-1-(4-chlorophenyl)-4,5,6,7-tetrahydro-1H-4,7-methano-indazole-3-carboxamide], the “% Displacement Protocol II” value at hCB1 was 1.38%.

As to `O=C(NNc1ccccc1Cl)c1nn(-c2ccc(Cl)cc2Cl)c2c1C1CC3CC(C1)CC2C3` [Example 174, N(7)-(2-Chlorophenylamino)-5-(2,4-dichlorophenyl)-5,6-diazatetracyclo[7.3.1.1^3,11.0^4,8]tetradeca-4(8),6-diene-7-carboxamide], the melting point is 110 °C. For the same compound, the inhibition at CB1 [1] (setting [3]) stood at 76.4%. Moreover, the inhibition at 0.3 µM at hCB2 (setting [4]) was 22.5%. Also, the activation at 1 µM on CB1 [2] (setting [5]) was -20.8%. Also, at CB1 [2] (setting [6]), the inhibition at 1 µM was determined as 75.5%.

The compound `O=C(NNc1ccccc1Cl)c1nn(-c2ccc(Cl)cc2)c2c1C1CC3CC(C1)CC2C3` [Example 123, N(7)-(2-Chlorophenylamino)-5-(4-chlorophenyl)-5,6-diazatetracyclo[7.3.1.1^3,11.0^4,8]tetradeca-4(8),6-diene-7-carboxamide] returned a melting point of 155 °C. In addition, the inhibition on CB1 [1] (setting [3]) was 89%. In addition, the inhibition at 0.3 µM at hCB2 (setting [4]) worked out at 47.6%. Also, the activation at 1 µM at CB1 [2] (setting [5]) amounted to 13.5%. Also, the inhibition at 1 µM on CB1 [2] (setting [6]) amounted to 99.1%.

In turn, `O=C(NNc1ccccc1)c1nn(-c2ccc(Cl)cc2)c2c1C1CC3CC(C1)CC2C3` [Example 121, N(7)-(N′-phenylamino)-5-(4-chlorophenyl)-5,6-diazatetracyclo[7.3.1.1^3,11.0^4,8]tetradeca-4(8),6-diene-7-carboxamide] showed a melting point of 103 to 105 °C. Further, the inhibition at CB1 [1] (setting [3]) is 65.4%. Besides, the inhibition at 0.3 µM at hCB2 (setting [4]) was 29.8%. For the same compound, at CB1 [2] (GTPγS binding over basal, rat cerebellar membrane, tested at 1 uM), the “Per Se % Stimulation” value is given as 16.0%. The “% Inhibition of WIN-55212-2 induced stimulation” value at CB1 [2] (GTPγS binding, tested at 1 uM in presence of 1 μM WIN 55,212-2) stood at 81.3%.

As to `O=C(NCc1ccc(F)cc1)c1nn(-c2ccc(Cl)cc2Cl)c2c1C1CC3CC(C1)CC2C3` [Example 172, N(7)-(4-Fluorobenzyl)-5-(2,4-dichlorophenyl)-5,6-diazatetracyclo[7.3.1.1^3,11.0^4,8]tetradeca-4(8),6-diene-7-carboxamide], the melting point is 68 to 70 °C. In addition, at CB1 [1] (setting [3]), the inhibition is 59.2%. For the same compound, at hCB2 (setting [4]), the inhibition at 0.3 µM worked out at 25.1%. On CB1 [2] (setting [5]), the activation at 1 µM was -18.3%. In addition, the inhibition at 1 µM on CB1 [2] (setting [6]) came out at 115%.

Compound `O=C(NNc1cccc(F)c1)c1nn(-c2ccc(Cl)cc2)c2c1C1CCC2C1` (stereo not shown) [Example 233, N(3)-[(3-Fluorophenyl)amino]-1-(4-chlorophenyl)-4,5,6,7-tetrahydro-1H-4,7-methano-indazole-3-carboxamide] had a melting point of 199 °C. For the same compound, on CB1 [1] (setting [3]), the inhibition stood at 73.2%. For the same compound, the inhibition at 0.3 µM on hCB2 (setting [4]) is 46.2%. In addition, the activation at 1 µM at CB1 [2] (setting [5]) was -16.3%. On CB1 [2] (setting [6]), the inhibition at 1 µM worked out at 79.5%.

As to `O=C(NNc1ccccc1Cl)c1nn(-c2ccc(F)cc2F)c2c1C1CCC2C1` (stereo not shown) [Example 286, N(3)-[(2-Chlorophenyl)amino]-1-(2,4-difluorophenyl)-4,5,6,7-tetrahydro-H-4,7-methano-indazole-3-carboxamide], the “% Displacement Protocol II” value at hCB1 came out at 32.35%.

Take `O=C(NCCc1ccccc1)c1nn(-c2ccc(Cl)cc2Cl)c2c1C1CC3CC(C1)CC2C3` [Example 178, N(7)-(2-Phenylethyl)-5-(2,4-dichlorophenyl)-5,6-diazatetracyclo[7.3.1.1^3,11.0^4,8]tetradeca-4(8),6-diene-7-carboxamide]: the melting point is 63 to 66 °C. Also, at CB1 [1] (setting [3]), the inhibition stood at 47%. Besides, the inhibition at 0.3 µM at hCB2 (setting [4]) turned out to be 6.04%. Besides, the activation at 1 µM at CB1 [2] (setting [5]) is -0.7%. The inhibition at 1 µM on CB1 [2] (setting [6]) stood at 88%.

On to `Cc1ccc(-n2nc(C(=O)NCc3ccccc3Cl)c3c2C2CC4CC(CC3C4)C2)cc1` [Example 162, N(7)-(2-Chlorobenzyl)-5-(4-methylphenyl)-5,6-diazatetracyclo[7.3.1.1^3,11.0^4,8]tetradeca-4(8),6-diene-7-carboxamide], for which the melting point fell in the range of 127 to 130 °C. On CB1 [1] (setting [3]), the inhibition stood at 38.9%. Besides, the inhibition at 0.3 µM on hCB2 (setting [4]) came out at 33.8%. The activation at 0.3 µM at CB1 [2] (1 h, GTPγS binding over basal, rat cerebellar membrane, tested at 300 nM, read-out: Per Se % Stimulation) was -29.2%. Further, the inhibition at 0.3 µM at CB1 [2] (GTPγS binding, tested at 300 nM in presence of 1 μM WIN 55,212-2, read-out: % Inhibition of WIN-55212-2 induced stimulation) came out at 72%.

For the compound `Cl.O=C(NNc1ccc(F)cc1)c1nn(-c2ccc(Cl)cc2)c2c1C1CC3CC(C1)CC2C3` [Example 131, N(7)-(4-Fluorophenylamino)-5-(4-chlorophenyl)-5,6-diazatetracyclo[7.3.1.1^3,11.0^4,8]tetradeca-4(8),6-diene-7-carboxamide hydrochloride], the melting point is 175 °C. Further, at CB1 [1] (read-out: % Displacement Protocol I, rat brain membrane, [3H]SR141716A displacement), the inhibition came out at 85.2%. For the same compound, the inhibition at 0.3 µM on hCB2 was determined as 10.8%. The activation at 1 µM at CB1 [2] (setting [5]) was -1.7%. For the same compound, the inhibition at 1 µM at CB1 [2] (setting [6]) amounted to 86%.

For the compound `O=C(NNc1ccc(F)cc1F)c1nn(-c2ccc(Cl)cc2)c2c1C1CC3CC(C1)CC2C3` [Example 132, N(7)-(2,4-Difluorophenylamino]-5-(4-chlorophenyl)-5,6-diazatetracyclo[7.3.1.1^3,11.0^4,8]tetradeca-4(8),6-diene-7-carboxamide], the melting point was 195 to 196 °C. Besides, the inhibition on CB1 [1] (setting [3]) was found to be 64.5%. For the same compound, at hCB2 (setting [4]), the inhibition at 0.3 µM was found to be 3.94%. Moreover, on CB1 [2] (setting [5]), the activation at 1 µM turned out to be 7.2%. The inhibition at 1 µM at CB1 [2] (setting [6]) came out at 89.2%.

(Values after US7923465B2, “Cannabinoid receptor ligands, pharmaceutical compositions containing them, and process for their preparation” (priority 2005, dated 2011).)
